Data on 3 compounds can be found in patent US6545048B1, “Compositions and methods of treating cancer using compositions comprising an inhibitor or endothelin receptor activity” (California Institute of Technology, priority 1999, dated 2003).

Data set [1] concerns human melanoma cell lines. Nature of the data set: MTS cell viability/cell number assay, melanoma lines. The format is cell-based. The conditions noted are these: for number of viable cells: 4 days. The method, then: Cells were cultured in the presence of BQ788 or vehicle or with no treatment for 4 days. Three wells of each condition were subjected to the MTS assay. The means were calculated and plotted as percent of the vehicle-treated value, +S.E.M. P values were calculated using […] for absolute values. The experiment was repeated 3 times, each yielding similar results.
(§1) Cell culture. Human melanoma cell lines were obtained from the American Tissue Culture Collection (ATCC) and were cultured with Dulbecco's Eagle medium (ATCC), containing 10% fetal calf serum, glutamine (Gibco) and antibiotics (concentration; Pen-Strep mix, Gibco) in a humidified incubator with 5% CO2 at 37° C. BQ788 and BQ123 (Calbiochem) were dissolved in 2% polyoxythylene (60) hydrogenated castor oil (HCO60; Nikko Chemicals). Cells were cultured in 96 well ELISA plates. For the cell viability/cell number assay, the day after plating, inhibitor or vehicle was added ard the cultures incubated for 4 days. The MTS assay was used to quantify cells by measuring OD at […] (Promega).

Data set [2] concerns A375 melanoma tumor. Nature of the data set: Intra-tumor injection, A375 melanoma grafts in nude mice. The data set is classed as in vivo, nude mice (nu/nu, BALB/c background). The method, then:
Nude mice (nu/nu, BALB/c background) were implanted with grafts of A375 cells subcutaneously on the flank. After the tumors had reached approximately 4 mm in diameter they were injected daily with BQ788 for 9 days. Perpendicular tumor diameters were measured daily to estimate tumor volume. Controls were injected on the same schedule with vehicle. Data from 3 experiments utilizing 10 BQ788-treated mice and 8-vehicle treated mice were pooled. P values were calculated using t test. Similar conclusions come from measuring tumor weights.
For the in vivo experiments we chose the A375 melanoma cell line. Although this line is not the most sensitive to BQ788 treatment in culture, it is known to grow readily in nude mice. First, dissociated cells were injected as a suspension into the flank of nude mice. When tumors developed, one mouse was sacrificed, the tumor removed and cut into pieces of approximately 3 mm in diameter and implanted under the skin of a new series of nude mice. When the tumor reaches 4 mm in diameter (which takes approximately 12 days, but can vary), 25 μl of a solution containing 20, μg/μl of BQ788 dissolved in 2% polyoxythylene (60) hydrogenated castor oil (HCO60) (Ishikawa, et al., Proc. Natl. Acad. Sci. USA, 91:4892-6 (1994)) was injected into the center of the tumor daily for 9 days. Tumors in control mice were injected in the same way with 25 μl of 2% HCO60. Before each injection the tumor dimensions were measured. At the outset, the mean tumor volume was 26 mm^3 in both control and BQ788-treated mice. […] Similar conclusions come from comparison of tumor weights (means of 446 mg versus 93 mg; p<0.005).

For data set [3] the following is noted: literature reports; cited from earlier work.
For data set [4], the system named is kidney 293 cells. Nature of the data set: MTS cell viability/cell number assay, kidney cells. The format is cell-based, human. The conditions noted are these: high concentrations, 4 days.
For a further data set, the system named is A375 cells. Nature of the data set: MTS assay, S6c alone or in combination with BQ788. The data set is classed as cell-based, human. The method, then:
In experiments similar to those illustrated in FIG. 2, S6c was tested for its effects on cultured A375 cells, alone or in combination with BQ788, at various concentrations.
as §1
Thus, the ability of BQ788 to lower melanoma cell number is likely to be through its action on ETRB and not as a side effect on another aspect of melanoma cell physiology.

Data set [5] concerns human melanoma cell lines. Nature of the data set: Morphology of cultured melanoma cells treated with antagonist (bright field). The format is cell-based. The method, then:
(§2) Cells were cultured for 4 days with 100 μM BQ788 (FIGS. A, C, and E) or with vehicle (FIGS. B, D, and F). The cell lines were melanoma line SK-MEL 28 (FIGS. A and B), melanoma line SK-MEL 5 (FIGS. C and D), and kidney 293 (FIGS. E and F). […] Pictures were taken with bright field optics at 40×magnification.
as §1
(§3) To test the hypothesis that ETRB function plays a role in melanoma cell growth and differentiation, we cultured 7 human melanoma cell lines and one human kidney cell line with the selective ETRB antagonist, BQ788.

For data set [6], the system named is A375 melanoma tumor. Nature of the data set: Histology of tumors from the i.p. experiment (TUNEL, anti-CD31). The data set is classed as in vivo, nude mice. The method, then:
FIGS. 8A-8D show representative sections from 4 tumors from BQ788 injected mice and FIGS. 8E-8G show tumors from vehicle-injected mice. […] The magnification is 20×.
Immunohistochemistry. Tumors were frozen on dry ice, cut on a cryostat into 20 μm sections, and stored at −80° C. Sections were rinsed in calcium and magnesium-free phosphate buffered saline (PBS), fixed in 4% paraformaldehyde for 1 hour at room temperature, blocked with 2% rabbit serum and incubated with primary antibody overnight at 4° C. After washing in PBS sections were incubated with a biotinylated secondary antibody, and staining developed using the Elite ABC kit (Vector Laboratories, CA). The primary antibodies used in this study were monoclonal rat anti-mouse CD31 (platelet endothelial cell adhesion molecule) and rat anti-mouse CD45 (leukocyte common antigen found on all cells of hematopoietic origin, except erythrocytes) (Pharmagen, San Diego, Calif.). A cell death kit was used for TUNEL staining (Boehringer Mannheim).
Several of the tumors from the i.p. injection experiment were taken for histological examination on day 10. Sections were stained with anti-CD31 antibody for angiogenesis, and with the TUNEL method for apoptosis. […] These effects in culture appear mediated by the action of the drug on ETRB itself, as BQ788 is ineffective on A375 cells in the presence of the ETRB agonist S6c. A further indication of the specificity of the action of BQ788 is its very different effect on kidney 293 cells.

Data set [7] has as its system kidney 293 cells. Nature of the data set: Morphology of cultured kidney 293 cells treated with antagonist (bright field). The conditions noted are these: 100 μM, 4 days. The data set is classed as cell-based, human. The method, then:
as §2, §1, §3

The test system of data set [8] is A375 melanoma tumor. Nature of the data set: Systemic (i.p.) administration, A375 melanoma grafts in nude mice. The format is in vivo. The method, then: The experiment was similar to that described in FIG. 6, except that the drug and vehicle were injected daily i.p. In FIG. 7A, the data for the 6 BQ788-treated mice were pooled.
We next asked if systemic administration of BQ788 inhibits tumor growth. In these experiments, tumor induction and the starting point of the treatments were as for the intra-tumor approach. At that point, mice were injected i.p. with 100 μl of BQ788 solution (0.6 mg BQ788 in 30% water and 70% saline, at a final HCO60 concentration of 0.6%) once or twice a day for a period of 9 days. Control mice received the same injections but without BQ788. In the first experiment, mice were injected once a day, and in the second experiment the mice were injected in the morning and then again in the early evening. […] However, there was some heterogeneity in the response of the mice to BQ788.

Setting [9] is: A375, SK-MEL 28 and RPMI 7951 cells.

“Also recorded” adds a separate entry of the source. Where a SMILES comes first, the peptide text is derived from it. [ ]: non-standard residue; d: D form.

For `CC(C)C[C@@H]1NC(=O)[C@@H](C(C)C)NC(=O)[C@@H]2CCCN2C(=O)[C@@H](CC(=O)O)NC(=O)[C@@H](Cc2c[nH]c3ccccc23)NC1=O` [BQ123] (cyclo(L[dW][dD]P[dV])), in data set [1] (A375 and SK-MEL 28 melanoma lines), the cell number entry is given as “slightly increases cell number”. In [1] (any of the cell lines, even at high concentrations), the “number of viable cells” value was “does not reduce the number of viable cells; also recorded: did not inhibit melanoma cell growth in culture”.
`CCCC[C@@H](NC(=O)[C@@H](Cc1cn(C(=O)OC)c2ccccc12)NC(=O)[C@H](CC(C)(C)C)NC(=O)N1[C@H](C)CCC[C@@H]1C)C(=O)O` [BQ788, N-cis-2,6-dimethylpiperidinocarbonyl-L-γ-methylleucyl-D-1-methoxycarbonyltrptophanyl-D-norleucine]: the viability result is on record as “almost complete loss of viability” in data set [1] (setting [9]); “less affected than the other lines” in data set [1] (SK-MEL 3 cells); “more affected” in data set [1] (SK-MEL 24 and SK-MEL 31 cells). Besides, the “sensitivity among the cell lines” value in data set [1] (RPMI 7951 cells) is on record as “highest degree of sensitivity”. Moreover, the “number of viable cells” value in data set [1] (all 7 melanoma lines, 100 μM) is recorded as “reduces the number of viable cells; also recorded: very significant loss in the number of viable cells”; with kidney 293 cells [4] it was “not kidney cells; also recorded: is not reduced”. For the same compound, the “growth rate (final size minus initial size) compared to controls” value with A375 melanoma tumor [2] (9 days, intra-tumor injection) is listed as 6 times slower. This compound returned a mean tumor volume in the data set on A375 melanoma tumor [2] (after 9 days of daily intra-tumor injection, control 376 mm^3, 26 mm^3 at the outset) of 84 mm^3. Moreover, the tumor growth result in the data set with A375 melanoma tumor [2] (intra-tumor injection daily for 9 days) was “inhibits melanoma tumor growth”; in the data set on A375 melanoma tumor [8] (i.p. once or twice a day for 9 days, pooled mice), “inhibits melanoma tumor growth; also recorded: effective inhibition of tumor growth”. The “tumor weight (mean)” value with A375 melanoma tumor [2] (intra-tumor injection, control 446 mg, p<0.005) amounted to 93 mg. In data set [3], the tolerability result is recorded as “can be well tolerated”. Besides, in the data set with A375 cells (A375 cells, ETRB agonist S6c present), the “effect of BQ788 on cells in the presence of S6c” value is on record as “ineffective”. Besides, the morphology result was “vacuoles in their cytoplasm” in data set [5] (setting [9]); “increased surface area (dendritic morphology)” in data set [5] (SK-MEL 3 cells); “increased pigmentation” in data set [5] (SK-MEL 24 and SK-MEL 31 cells); “different shape and accumulation of black pigment” in [5] (SK-MEL 28 and SK-MEL 5, 100 μM, 4 days (FIG. 1 legend)). The phenotype / dendricity result in data set [5] (SK-MEL 5 cells, 100 μM, 4 days) is reported as “dendritic phenotype; also recorded: increased dendricity”. In addition, the morphological changes entry in [5] (SK-MEL 28 cells, 100 μM, 4 days) is “develop large cytoplasmic vacuoles and enhanced pigmentation”; in the data set with kidney 293 cells [7] it was “does not result in any of these morphological changes”. The surface area entry in data set [5] (all the melanoma lines) is on record as “increased surface area”. Moreover, the pigmentation result in data set [5] (most melanoma lines (except for SK-MEL 3)) is on record as “major increases in pigmentation”. For the same compound, the “TUNEL labeling (apoptosis)” value is given as “TUNEL-positive cells are comparatively greater” in the data set on A375 melanoma tumor [6] (day 10) and “enhanced TUNEL labeling” in the data set on A375 melanoma tumor [6] (day 10, listed as BQ-788). For the same compound, in the data set with A375 melanoma tumor [6] (day 10 (data not shown)), the “angiogenesis (anti-CD31 staining)” value is on record as “no evidence that BQ788 blocks angiogenesis”. For the same compound, in the data set on A375 melanoma tumor [8] (i.p., after 6 days, one set of mice), the “tumor growth, first subgroup of mice” value is “slowed tumor growth”. Also, the “tumor growth, second subgroup of mice” value with A375 melanoma tumor [8] (i.p., after 6 days, other set of mice) was “caused the tumors to regress; also recorded: the tumors shrank and displayed complete growth arrest”. The “tumor size versus day 1” value in the data set on A375 melanoma tumor [8] (i.p., first 6 days) was “did not differ significantly from their size at day 1”.
For the compound sarafotoxin 6c [S6c], the A375 cell number entry in the data set with A375 cells (S6c alone, 0.1 to 1 μM) was “stimulates cell growth; also recorded: increases A375 cell number”. The “block of the effects of BQ788 on cell number” value in the data set with A375 cells (S6c in combination with BQ788, A375 cells) was “can block the inhibitory effects of the ETRB antagonist; also recorded: can completely block the effects of BQ788”.
